Test results as given in US20020026053A1, “Novel 3-(substituted) -2- indolinones compounds and use thereof as inhibitors of protein kinase activity” (priority 1997, published 2002).

What was measured:
FLK-1 receptor = assay: FLK-1 Assay (cellular/catalytic ELISA, VEGF-stimulated phosphotyrosine); type: cell-based; design: concentration or dose not given beside the values; details: protocol P.110
Method in brief: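 Receptor phosphotyrosine ELISA: Flk-1-expressing NIH3T3 C7#3 cells, starved overnight in 0.1% FBS medium, received compound (1:200 final dilution, 0.5% DMSO) for 2 h at 37 °C, then VEGF. Anti-FLK-1-captured receptor was probed with anti-phosphotyrosine UB40 and peroxidase/ABTS read-out, relative to cells without compound.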

PDGF-R = PDGF-R Assay (cellular ELISA, U1242 cells); type: cell-based; design: concentration or dose not given beside the values; details: protocol P.119
Method in brief: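 Cellular ELISA for receptor autophosphorylation: after 2 hr test-compound treatment of serum-free U1242 cells at 37°C, ligand is added for 5–10 min, cells are lysed (HNTG) and receptor captured by specific antibody. Anti-phosphotyrosine plus secondary antibody with ABTS colour read at 410/630 nm, compared with compound-free control cells.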

| Compound | Flk Kinase % Inhibition (P.110) (FLK-1 receptor) | PDGF Kinase % Inhibition (P.119) (PDGF-R) |
| --- | --- | --- |
| CNS(=O)(=O)c1ccc2c(c1)C(=Cc1cccc(Oc3ccc(OC)cc3)c1)C(=O)N2 [10739/D08] | 14.3% | 5.7% |
| CNS(=O)(=O)c1ccc2c(c1)C(=Cc1ccc(OCCCN(C)C)cc1)C(=O)N2 [10739/D09] | −32.8% | 4.7% |
| COc1ccc(C=C2C(=O)Nc3ccc(S(=O)(=O)Nc4ccc(C(F)(F)F)cc4)cc32)cc1C [10739/E02] | 26.7% | 18.3% |
| O=C1Nc2ccc(S(=O)(=O)Nc3ccc(C(F)(F)F)cc3)cc2C1=Cc1cccc(OCc2ccccc2)c1 [10739/E03] | −119.0% | 2.8% |
| O=C1Nc2ccc(S(=O)(=O)Nc3ccc(C(F)(F)F)cc3)cc2C1=Cc1ccc(OCc2ccccc2)cc1 [10739/E04] | 17.7% | 5.2% |
| O=C1Nc2ccc(S(=O)(=O)Nc3ccc(C(F)(F)F)cc3)cc2C1=CC1COc2ccccc2O1 (centres unmarked) [10739/E05] | 28.0% | 10.6% |
| O=C1Nc2ccc(S(=O)(=O)Nc3ccc(C(F)(F)F)cc3)cc2C1=Cc1ccc(O)cc1Cl [10739/E06] | 34.3% | 72.7% |
| O=C1Nc2ccc(S(=O)(=O)Nc3ccc(C(F)(F)F)cc3)cc2C1=Cc1cc(O)c(O)c(O)c1 [10739/E07] | 10.0% | 48.4% |
| COc1ccc(Oc2cccc(C=C3C(=O)Nc4ccc(S(=O)(=O)Nc5ccc(C(F)(F)F)cc5)cc43)c2)cc1 [10739/E08] | 17.2% | 21.7% |
| CN(C)CCCOc1ccc(C=C2C(=O)Nc3ccc(S(=O)(=O)Nc4ccc(C(F)(F)F)cc4)cc32)cc1 [10739/E09] | 24.5% | 18.3% |
| O=C1Nc2ccc(S(=O)(=O)Nc3ccc(C(F)(F)F)cc3)cc2C1=Cc1ccoc1 [10739/E10] | 11.2% | 25.6% |
| O=C1Nc2ccc(S(=O)(=O)Nc3ccc(C(F)(F)F)cc3)cc2C1=Cc1ccc(CO)o1 [10739/E11] | 15.3% | 15.9% |
| COc1ccc(C=C2C(=O)Nc3ccc(S(=O)(=O)N4CCOCC4)cc32)cc1C [10739/F02] | 25.5% | 6.2% |
| O=C1Nc2ccc(S(=O)(=O)N3CCOCC3)cc2C1=Cc1cccc(OCc2ccccc2)c1 [10739/F03] | 24.5% | −7.4% |
| O=C1Nc2ccc(S(=O)(=O)N3CCOCC3)cc2C1=Cc1ccc(OCc2ccccc2)cc1 [10739/F04] | 26.3% | −4.0% |
| O=C1Nc2ccc(S(=O)(=O)N3CCOCC3)cc2C1=CC1COc2ccccc2O1 (centres unmarked) [10739/F05] | 8.7% | −4.5% |
| O=C1Nc2ccc(S(=O)(=O)N3CCOCC3)cc2C1=Cc1ccc(O)cc1Cl [10739/F06] | 13.7% | 9.1% |
| O=C1Nc2ccc(S(=O)(=O)N3CCOCC3)cc2C1=Cc1cc(O)c(O)c(O)c1 [10739/F07] | 0.6% | 23.7% |
| COc1ccc(Oc2cccc(C=C3C(=O)Nc4ccc(S(=O)(=O)N5CCOCC5)cc43)c2)cc1 [10739/F08] | 7.0% | 9.1% |
